According to ChEMBL document CHEMBL1133424, “Fluoresceinated FKBP12 ligands for a high-throughput fluorescence polarization assay” (Bioorg Med Chem Lett, 2000):

Tests used:
[1] = target: T1, Peptidyl-prolyl cis-trans isomerase FKBP1A (Homo sapiens, UniProt P62942); assay: Concentration required to produce a half-maximal FP signal at against FK506 binding protein 12 at ligand concentration of 100 nM
[2] = target: T1, Peptidyl-prolyl cis-trans isomerase FKBP1A; assay: Binding affinity of compound for FK506 binding protein 12

T1 sequence (P62942 whole entry): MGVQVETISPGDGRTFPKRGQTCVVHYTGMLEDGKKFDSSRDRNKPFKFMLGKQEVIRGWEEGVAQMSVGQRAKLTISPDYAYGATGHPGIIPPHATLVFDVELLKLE

Row | Structure (SMILES) | IC50 [1] [nM] | Ki [2] [nM]
1 | CCC(C)(C)C(=O)C(=O)N1CCC[C@H]1C(=O)OCCC/N=C(S)/N=C1\C=CC(=C2c3ccc(O)cc3Oc3cc(O)ccc32)C(C(=O)O)=C1 | 1650 | 1300
2 | CC(C)(C)CC(=O)C(=O)N1CCCC[C@H]1C(=O)OCCC/N=C(S)/N=C1\C=CC(=C2c3ccc(O)cc3Oc3cc(O)ccc32)C(C(=O)O)=C1 | 980 | 482
3 | CC(C)(C)CC(=O)C(=O)N1CCCC[C@H]1C(=O)OC(CCCc1ccccc1)CC/N=C(S)/N=C1\C=CC(=C2c3ccc(O)cc3Oc3cc(O)ccc32)C(C(=O)O)=C1 (stereo partly drawn) | 250 | 32
4 | COc1cc(C(=O)C(=O)N2CCCC[C@H]2C(=O)OCCCC/N=C(S)/N=C2\C=CC(=C3c4ccc(O)cc4Oc4cc(O)ccc43)C(C(=O)O)=C2)cc(OC)c1OC | 410 | 526
